What was measured:
Type in all cases: cell-based
MEXF 1341L = assay: Monolayer propidium iodide assay, MEXF 1341L; settings: Homo sapiens, 96 h, Melanoma, 4 days of treatment
Text: (§1) Oncotest GmbH, Germany's proprietary tumor cell line panel comprises 40 cell lines. These cell lines were derived from 15 different tumor histotypes, each represented by 1 to 6 different cell lines. Cell lines were established from cancer of the bladder (3), colon (4), head and neck (1), lung (6), breast (3), pancreas (3), prostate (4), ovary (2), kidney (3), liver (1), stomach (1) and the uteri body (1), as well as from melanoma (3), sarcoma (2) and pleuramesothelioma (3). Out of these 40 cell lines, 24 cell lines were established at Oncotest, from patient-derived tumor xenografts. […]
(§2) Stock solutions of the compound of formula (1) (3.3 mM in DMSO) were prepared and stored in small aliquots (200 μl) at −20° C. […] Each concentration was evaluated in triplicate. […]
(§3) Cells were plated in 96-well flat-bottom microtiter plates at a cell density of 4,000 to 20,000 cells/well. […] After an incubation period of 1-2 hours at room temperature, fluorescence (FU) was measured using the Cytofluor 4000 microplate reader (excitation λ=530 nm, emission λ=620 nm) to quantify the amount of attached viable cells. […] Based on the T/C values, relative IC50 values were determined by non-linear regression (log [conc. of inhibitor] versus response (% T/C)) using the GraphPad Prism® analysis software (Prism 5 for Windows, version 5.01, GraphPad Software Inc., CA). […]

OVXF OVCAR3 = assay: Monolayer propidium iodide assay, OVXF OVCAR3; settings: Homo sapiens, OVCAR-3, 96 h; OVXF OVCAR3, Ovarian; 4 days of treatment
Text: as §1, §2, §3

MAXF 401NL = assay: Monolayer propidium iodide assay, MAXF 401NL; settings: Homo sapiens, 96 h, Mammary, 4 days of treatment
Text: as §1, §2, §3

PAXF 1657L = assay: Monolayer propidium iodide assay, PAXF 1657L; settings: Homo sapiens, 96 h, Pancreas, 4 days of treatment
Text: as §1, §2, §3

PAXF PANC 1 = assay: Monolayer propidium iodide assay, PAXF PANC 1; settings: Homo sapiens, 96 h; PAXF PANC 1, Pancreas; 4 days of treatment
Text: as §1, §2, §3

PRXF LNCAP = assay: Monolayer propidium iodide assay, PRXF LNCAP; settings: Homo sapiens, 96 h, Prostate, 4 days of treatment
Text: as §1, §2, §3

RXF 486L = assay: Monolayer propidium iodide assay, RXF 486L; settings: Homo sapiens, 96 h, Renal, 4 days of treatment
Text: as §1, §2, §3

OVXF 899L = assay: Monolayer propidium iodide assay, OVXF 899L; settings: Homo sapiens, 96 h, Ovarian, 4 days of treatment
Text: as §1, §2, §3

PRXF DU 145 = assay: Monolayer propidium iodide assay, PRXF DU 145; settings: Homo sapiens, 96 h; PRXF DU 145, Prostate; 4 days of treatment
Text: as §1, §2, §3

LXFA 289L = assay: Monolayer propidium iodide assay, LXFA 289L; settings: Homo sapiens, 96 h, Lung, 4 days of treatment
Text: as §1, §2, §3

RXF 1781L = assay: Monolayer propidium iodide assay, RXF 1781L; settings: Homo sapiens, 96 h, Renal, 4 days of treatment
Text: as §1, §2, §3

BXF 1352L = assay: Monolayer propidium iodide assay, BXF 1352L; settings: Homo sapiens, 96 h, Bladder, 4 days of treatment
Text: as §1, §2, §3

UXF 1138L = assay: Monolayer propidium iodide assay, UXF 1138L; settings: Homo sapiens, 96 h, Uterus, 4 days of treatment
Text: as §1, §2, §3

LXFL 1121L = assay: Monolayer propidium iodide assay, LXFL 1121L; settings: Homo sapiens, 96 h, Lung, 4 days of treatment
Text: as §1, §2, §3

SXF SAOS2 = assay: Monolayer propidium iodide assay, SXF SAOS2; settings: Homo sapiens, SAOS-2, 96 h; SXF SAOS2, Sarcoma; 4 days of treatment
Text: as §1, §2, §3

MEXF 276L = assay: Monolayer propidium iodide assay, MEXF 276L; settings: Homo sapiens, MEXF276L, 96 h, Melanoma, 4 days of treatment
Text: as §1, §2, §3

MEXF 462NL = assay: Monolayer propidium iodide assay, MEXF 462NL; settings: Homo sapiens, 96 h, Melanoma, 4 days of treatment
Text: as §1, §2, §3

LXFL 529L = assay: Monolayer propidium iodide assay, LXFL 529L; settings: Homo sapiens, 96 h, Lung, 4 days of treatment
Text: as §1, §2, §3

LXFL H 460 = assay: Monolayer propidium iodide assay, LXFL H 460; settings: Homo sapiens, NCI-H460, 96 h; LXFL H 460, Lung; 4 days of treatment
Text: as §1, §2, §3

CXF HT 29 = assay: Monolayer propidium iodide assay, CXF HT 29; settings: Homo sapiens, 96 h; CXF HT 29, Colon; 4 days of treatment
Text: as §1, §2, §3

CXF RKO = assay: Monolayer propidium iodide assay, CXF RKO; settings: Homo sapiens, 96 h, Colon, 4 days of treatment
Text: as §1, §2, §3

PRXF 22RV1 = assay: Monolayer propidium iodide assay, PRXF 22RV1; settings: Homo sapiens, 96 h; PRXF 22RV1, Prostate; 4 days of treatment
Text: as §1, §2, §3

CXF 269L = assay: Monolayer propidium iodide assay, CXF 269L; settings: Homo sapiens, 96 h, Colon, 4 days of treatment
Text: as §1, §2, §3

RXF 393NL = assay: Monolayer propidium iodide assay, RXF 393NL; settings: Homo sapiens, 96 h, Renal, 4 days of treatment
Text: as §1, §2, §3

LXFA 526L = assay: Monolayer propidium iodide assay, LXFA 526L; settings: Homo sapiens, 96 h, Lung, 4 days of treatment
Text: as §1, §2, §3

LXFA 629L = assay: Monolayer propidium iodide assay, LXFA 629L; settings: Homo sapiens, 96 h, Lung, 4 days of treatment
Text: as §1, §2, §3

MAXF MDA 231 = assay: Monolayer propidium iodide assay, MAXF MDA 231; settings: Homo sapiens, MDA-MB-231, 96 h; MAXF MDA 231, Mammary; 4 days of treatment
Text: as §1, §2, §3

PXF 1118L = assay: Monolayer propidium iodide assay, PXF 1118L; settings: Homo sapiens, 96 h, Pleuramesothelioma, 4 days of treatment
Text: as §1, §2, §3

GXF 251 L = assay: Monolayer propidium iodide assay, GXF 251 L; settings: Homo sapiens, 96 h, Gastric, 4 days of treatment
Text: as §1, §2, §3

Compound: CCCC1CCCCCC(O)CC(=O)NC2CSSCC(NC2=O)C(=O)O1 (centres unmarked) [compound of formula (1)]
- IC50 (MEXF 1341L): 102 nM
- IC50 (OVXF OVCAR3): 195 nM
- IC50 (MAXF 401NL): 64 nM
- IC50 (PAXF 1657L): 39 nM
- IC50 (PAXF PANC 1): 59 nM
- IC50 (PRXF LNCAP): 122 nM
- IC50 (RXF 486L): 159 nM
- IC50 (OVXF 899L): 301 nM
- IC50 (PRXF DU 145): 52 nM
- IC50 (LXFA 289L): 41 nM
- IC50 (RXF 1781L): 260 nM
- IC50 (BXF 1352L): 103 nM
- IC50 (UXF 1138L): 126 nM
- IC50 (LXFL 1121L): 47 nM
- IC50 (SXF SAOS2): 185 nM
- IC50 (MEXF 276L): 90 nM
- IC50 (MEXF 462NL): 149 nM
- IC50 (LXFL 529L): 50 nM
- IC50 (LXFL H 460): 146 nM
- IC50 (CXF HT 29): 137 nM
- IC50 (CXF RKO): 74 nM
- IC50 (PRXF 22RV1): 159 nM
- IC50 (CXF 269L): 55 nM
- IC50 (RXF 393NL): 323 nM
- IC50 (LXFA 526L): 21 nM
- IC50 (LXFA 629L): 40 nM
- IC50 (MAXF MDA 231): 90 nM
- IC50 (PXF 1118L): 54 nM
- IC50 (GXF 251 L): 93 nM

Source: US20130130992A1, “DIPEPTIDE DERIVATIVE FOR THE TREATMENT OF CANCER” (ONCOTEST GMBH, priority 2010, published 2013)
